The source of these data is patent US8981094B2, “Piperidine/piperazine derivatives” (Janssen Pharmaceutica N.V., priority 2007, dated 2015).

The IC50 is the concentration at which inhibition is half-maximal.

The target of the test is T1, human DGAT1 (Homo sapiens, UniProt O75907).
T1 construct: FLAG (N); made in house; host or cells: SF9 insect cells (pFastBac baculovirus); total cell membranes
T1 sequence (O75907 1-488): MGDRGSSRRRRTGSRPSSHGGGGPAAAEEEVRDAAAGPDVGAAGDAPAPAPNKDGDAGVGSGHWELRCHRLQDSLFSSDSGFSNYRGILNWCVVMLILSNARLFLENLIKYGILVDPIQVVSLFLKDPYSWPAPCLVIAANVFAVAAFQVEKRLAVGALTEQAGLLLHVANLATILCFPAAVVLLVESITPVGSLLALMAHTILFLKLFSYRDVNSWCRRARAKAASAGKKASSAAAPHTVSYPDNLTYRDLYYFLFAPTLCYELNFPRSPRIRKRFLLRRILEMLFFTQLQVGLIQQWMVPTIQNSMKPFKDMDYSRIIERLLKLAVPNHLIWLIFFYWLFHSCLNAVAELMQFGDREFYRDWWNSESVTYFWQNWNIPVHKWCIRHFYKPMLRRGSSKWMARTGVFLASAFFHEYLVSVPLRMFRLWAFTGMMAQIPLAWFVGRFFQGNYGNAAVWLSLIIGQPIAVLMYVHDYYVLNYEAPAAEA
Nature of the test: Inhibition of DGAT1 activity, FlashPlate assay with DGAT1 membrane preparations and substrate micelles. The format is biochemical. Particulars: pIC50 = -logIC50, IC50 values expressed in M. An excerpt:
A) Measurement of Inhibition of DGAT1 Activity by the Present Compounds
The inhibiting activity of the present compounds on DGAT1 activity was screened in a single well procedure assay using DGAT1 comprising membrane preparations and DGAT1 substrate comprising micelles and determining formed radio-active triacylglycerol coming in close proximity of a flashplate surface by radio luminescence.
Said assay is described in full detail in WO2006/067071, the content of which is incorporated herein by reference.
By DGAT1 activity is meant the transfer of coenzyme A activated fatty acids to the 3-position of 1,2-diacylglycerols, thus forming a triglyceride molecule, by enzyme DGAT1.
human DGAT1 (NM012079.2) was cloned into the pFastBac vector, containing translation start, a FLAG-tag at the N-terminus as described in literature and a viral Kozak sequence (AAX) preceding the ATG to improve expression in insect cells. Expression was done as described in literature (Cases, S., Smith, S. J., Zheng, Y., Myers H. M., Lear, S. R., Sande, E., Novak, S., Collins, C., Welch, C. B., Lusis, A. J., Erickson, S. K. and Farese, R. V. (1998) Proc. Natl. Acad. Sci. USA 95, 13018-13023.) using SF9 cells.
72 h transfected SF9 cells were collected by centrifugation (13000 rpm-15 min-4° C.) and lysed in 2×500 ml lysisbuffer (0.1M Sucrose, 50 mM KCl, 40 mM KH2PO4, 30 mM EDTA pH 7.2. Cells were homogenized by cell disruptor. After centrifugation 1380 rpm-15 min-4° C. (SN discarded), pellet was resuspended in 500 ml lysisbuffer and total cell membranes collected by ultracentrifugation at 34000 rpm(100 000 g) for 60 min (4° C.). The collected membranes were resuspended in lysis buffer, divided in aliquots and stored with 10% glycerol at −80° C. until use.
Add 1 ml dioleoyl-sn-glycerol (10 mg/ml) to 10 ml of L-α-phosphatidylcholine (1 mg/ml) and 10 ml of L-α-phosphatidyl-L-serine (1 mg/ml) in a thick glass recipient. Evaporate under nitrogen and put on ice for 15 minutes. Reconstitute in 10 ml Tris/HCl (10 mM, pH 7.4) by sonication on ice. The sonification process consists of sonification cycles of 10 seconds in the sonification bath followed by 10 seconds cool down on ice and repeating this sonification cycle till a homogeneous solution is obtained (takes about 15 minutes). The thus obtained micelles are stored at −20° C. till later use and contain DAG at a final concentration of 1.61 mM.
c) Substrate mix (for 1 384 well plate=3840 μl) • 612 μl micelles stock (51 μM final) • 16.6 μl oleoylCoA 9.7 mM • 23 μl [^3H]-oleoylCoA (49 Ci/mmol, 500 μCi/ml) • 3188.4 μl Tris pH 7.4, 10 mM
d) Enzyme mix (for 1 384 well plate=3520 μl) (5 μg/ml) • Add 11.73 μl of DGAT membrane stock (1500 μg/ml stock) to 3508 μl assay buffer.
e) Stop mix (for 1 384 well plate=7.68 ml) (250 mM) • Add 384 μl of N-ethylmaleimide (5M) to 3.456 ml DMSO 100%, and further dilute 3.84 ml of said solution with 3.84 ml DMSO 10%.
DGAT activity in membrane preparations was assayed in 50 mM Tris-HCl (pH 7.4), 150 mM MgCl2, 1 mM EDTA and 0.2% BSA, containing 50 μM DAG, 32 μg/ml PC/PS and 8.4 μM [^3H]-oleoylCoA (at a specific activity of 30 nCi/well) in a final volume of 50 μl in 384-well format using the red shifted Basic Image FlashPlate™ (Perkin Elmer Cat.No. SMP400).
In detail, 10 μl enzyme mix and 10 μl substrate mix were added to 30 μl of assay buffer, optionally in the presence of 1 μl DMSO (blank and controls) or 1 μl of the compound to be tested. This reaction mixture was incubated for 120 minutes at 37° C. and the enzymatic reaction stopped by adding 20 μl of the stop mix. The plates were sealed and the vesicles allowed to settle overnight at room temperature. Plates were centrifuged for 5 minutes at 1500 rpm and measured in Leadseeker. […]
`C=CCC(N)C(=O)Nc1ccc(C2CCN(C(=O)Nc3c(Cl)cccc3Cl)CC2)cc1` (centres unmarked) [Compound 146]: inhibition was half-maximal at 10500 nM (IC50).

For `CC(N)C(=O)Nc1ccc(C2CCN(C(=O)Nc3c(Cl)cccc3Cl)CC2)cc1` (centres unmarked) [Compound 148], the midpoint of inhibition, the IC50, lay at 7080 nM.

The compound `O=C(CC1CCCN1)Nc1ccc(C2CCN(C(=O)Nc3c(Cl)cccc3Cl)CC2)cc1` (centres unmarked) [Compound 149] gave an IC50 of 7240 nM.

As for `NCCC(=O)Nc1ccc(C2CCN(C(=O)Nc3c(Cl)cccc3Cl)CC2)cc1` [Compound 150], inhibition was half-maximal at 6920 nM (IC50).

`CCC(N)C(=O)Nc1ccc(C2CCN(C(=O)Nc3c(Cl)cccc3Cl)CC2)cc1` (centres unmarked) [Compound 151] had an IC50 of 6920 nM.

The compound `O=C(CC(c1ccc(Cl)cc1)c1ccc(Cl)cc1)c1ccc(N2CCN(C(=O)Nc3c(Cl)cccc3Cl)CC2)cc1` [Compound 162] showed an IC50 of 112 nM.

`COCCOCC(=O)N(C)CC(=O)Nc1ccc(N2CCN(C(=O)Nc3c(Cl)cccc3Cl)CC2)cc1` [Compound 163] gave an IC50 of 1410 nM. This IC50 lies about 13-fold higher than the previous one.

For `CN(CC(=O)Nc1ccc(N2CCN(C(=O)Nc3c(Cl)cccc3Cl)CC2)cc1)C(=O)CC(C)(C)C` [Compound 167], the IC50 is 22.4 nM.

`CC(C)CC(=O)N(C)CC(=O)Nc1ccc(N2CCN(C(=O)Nc3c(Cl)cccc3Cl)CC2)cc1` [Compound 168] showed an IC50 of 30.9 nM.

In turn, `CCCC(=O)N(C)CC(=O)Nc1ccc(N2CCN(C(=O)Nc3c(Cl)cccc3Cl)CC2)cc1` [Compound 169] gave an IC50 of 53.7 nM.

The compound `CCC(=O)N(C)CC(=O)Nc1ccc(N2CCN(C(=O)Nc3c(Cl)cccc3Cl)CC2)cc1` [Compound 170] showed an IC50 of 245 nM.

For the compound `COc1cc(Cl)c(NC(=O)N2CCN(c3ccc(NC(=O)CCCc4ccccc4)cc3)CC2)c(Cl)c1` [Compound 190], the IC50 is 6.17 nM.

With `COc1ccc(CC(=O)Nc2ccc(N3CCN(C(=O)Nc4c(Cl)cc(OC)cc4OC)CC3)cc2)cc1` [Compound 191], inhibition was half-maximal at 44.7 nM (IC50).

Compound `O=C(CCCc1ccccn1)Nc1ccc(N2CCN(C(=O)Nc3c(Cl)cccc3Cl)CC2)cc1` [Compound 195] showed an IC50 of 123 nM.

As to `CC(C)(C)OC(=O)NC(CO)C(=O)Nc1ccc(C2CCN(C(=O)Nc3c(Cl)cccc3Cl)CC2)cc1` (centres unmarked) [Compound 204], it took 1910 nM to reach half-maximal inhibition (IC50).

The compound `CCC(NC(=O)OC(C)(C)C)C(=O)Nc1ccc(C2CCN(C(=O)Nc3c(Cl)cccc3Cl)CC2)cc1` (centres unmarked) [Compound 205] showed an IC50 of 398 nM.

The compound `CC(NC(=O)OC(C)(C)C)C(=O)Nc1ccc(C2CCN(C(=O)Nc3c(Cl)cccc3Cl)CC2)cc1` (centres unmarked) [Compound 206] showed an IC50 of 269 nM.

`C=CCC(NC(=O)OC(C)(C)C)C(=O)Nc1ccc(C2CCN(C(=O)Nc3c(Cl)cccc3Cl)CC2)cc1` (centres unmarked) [Compound 207] gave an IC50 of 209 nM. This IC50 and that of the compound before are within 1.5-fold of each other.

Turning to `CC(C)C(NC(=O)OC(C)(C)C)C(=O)Nc1ccc(C2CCN(C(=O)Nc3c(Cl)cccc3Cl)CC2)cc1` (centres unmarked) [Compound 208], 191 nM corresponded to half-maximal inhibition (IC50).

`COCC(NC(=O)OC(C)(C)C)C(=O)Nc1ccc(C2CCN(C(=O)Nc3c(Cl)cccc3Cl)CC2)cc1` (centres unmarked) [Compound 209] gave an IC50 of 166 nM.

With `CSCC(NC(=O)OC(C)(C)C)C(=O)Nc1ccc(C2CCN(C(=O)Nc3c(Cl)cccc3Cl)CC2)cc1` (centres unmarked) [Compound 210], the IC50 was 155 nM.

`CC(C)(C)OC(=O)NC(CC#N)C(=O)Nc1ccc(C2CCN(C(=O)Nc3c(Cl)cccc3Cl)CC2)cc1` (centres unmarked) [Compound 211] had an IC50 of 126 nM.

Regarding `CC(C)(C)OC(=O)NCC(=O)Nc1ccc(C2CCN(C(=O)Nc3c(Cl)cccc3Cl)CC2)cc1` [Compound 212], the midpoint of inhibition, the IC50, lay at 115 nM.

The compound `CCC(C)C(NC(=O)OC(C)(C)C)C(=O)Nc1ccc(C2CCN(C(=O)Nc3c(Cl)cccc3Cl)CC2)cc1` (centres unmarked) [Compound 213] had an IC50 of 107 nM.

Consider `CC(C)(C)OC(=O)NCCC(=O)Nc1ccc(C2CCN(C(=O)Nc3c(Cl)cccc3Cl)CC2)cc1` [Compound 214], for which the half-maximal inhibitory concentration (IC50) was 97.7 nM.

In the case of `CC(C)C(CC(=O)Nc1ccc(C2CCN(C(=O)Nc3c(Cl)cccc3Cl)CC2)cc1)NC(=O)OC(C)(C)C` (centres unmarked) [Compound 215], the concentration for half-maximal inhibition (IC50) is 58.9 nM.
